From PubChem BioAssay (NCI)
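Interpolation was linear, between the two tested concentrations surrounding the appropriate level; five concentrations were tested over 48 hours in 96-well plates. GI50 marks 50% less growth. TGI is the concentration that stops growth completely.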

Legend:
Test in all cases: NCI tumour cell line growth inhibition, 48 h
MDA-MB-435 = test system: MDA-MB-435
HT29 colon = test system: HT29 colon
SR leukemia = test system: SR leukemia
HS 578T breast = test system: HS 578T breast
MALME-3M melanoma = test system: MALME-3M melanoma
SK-MEL-2 melanoma = test system: SK-MEL-2 melanoma
COLO 205 colon = test system: COLO 205 colon
NCI-H460 lung = test system: NCI-H460 lung
CAKI-1 renal = test system: CAKI-1 renal
SK-MEL-28 melanoma = test system: SK-MEL-28 melanoma
SNB-75 CNS = test system: SNB-75 CNS
RPMI-8226 leukemia = test system: RPMI-8226 leukemia
OVCAR-4 ovarian = test system: OVCAR-4 ovarian
SK-OV-3 ovarian = test system: SK-OV-3 ovarian
U251 CNS = test system: U251 CNS
NCI-H23 lung = test system: NCI-H23 lung
TK-10 renal = test system: TK-10 renal
UACC-62 melanoma = test system: UACC-62 melanoma
UACC-257 melanoma = test system: UACC-257 melanoma
MOLT-4 leukemia = test system: MOLT-4 leukemia
BT-549 breast = test system: BT-549 breast
M14 melanoma = test system: M14 melanoma
ACHN renal = test system: ACHN renal
PC-3 prostate = test system: PC-3 prostate
CCRF-CEM leukemia = test system: CCRF-CEM leukemia
HCC-2998 colon = test system: HCC-2998 colon
SW-620 colon = test system: SW-620 colon
HCT-116 colon = test system: HCT-116 colon
OVCAR-8 ovarian = test system: OVCAR-8 ovarian
HL-60(TB) leukemia = test system: HL-60(TB) leukemia
NCI/ADR-RES ovarian = test system: NCI/ADR-RES ovarian
NCI-H226 lung = test system: NCI-H226 lung
A498 renal = test system: A498 renal
SF-295 CNS = test system: SF-295 CNS
RXF 393 renal = test system: RXF 393 renal
786-0 renal = test system: 786-0 renal
OVCAR-3 ovarian = test system: OVCAR-3 ovarian
IGROV1 ovarian = test system: IGROV1 ovarian
A549 NSCLC = test system: A549 NSCLC
NCI-H522 lung = test system: NCI-H522 lung
HOP-92 NSCLC = test system: HOP-92 NSCLC
HCT-15 colon = test system: HCT-15 colon
KM12 colon = test system: KM12 colon
HOP-62 NSCLC = test system: HOP-62 NSCLC
MCF7 breast = test system: MCF7 breast
SF-268 CNS = test system: SF-268 CNS
MDA-MB-231 breast = test system: MDA-MB-231 breast
DU-145 prostate = test system: DU-145 prostate
SNB-19 CNS = test system: SNB-19 CNS
K-562 leukemia = test system: K-562 leukemia
T-47D breast = test system: T-47D breast
OVCAR-5 ovarian = test system: OVCAR-5 ovarian
SF-539 CNS = test system: SF-539 CNS
SK-MEL-5 melanoma = test system: SK-MEL-5 melanoma
LOX IMVI melanoma = test system: LOX IMVI melanoma
SN12C renal = test system: SN12C renal
UO-31 renal = test system: UO-31 renal

How did the GI50 (MDA-MB-435) turn out when `COC(=O)[C@H]1CCCN1C(=O)[C@H]1CCCN1C(=O)[C@@H](Cc1c[nH]c2ccccc12)NC(=S)Nc1cc(C(F)(F)F)cc(C(F)(F)F)c1` was run?
Its GI50 is 1.8 µM.

What about the TGI (MDA-MB-435) of the same compound?
The TGI was 3.58 µM.

And the GI50 (HT29 colon)?
The GI50 was 1.75 µM.

What about the TGI (HT29 colon) of the same compound?
Its TGI is 3.65 µM.

And the GI50 (SR leukemia)?
The GI50 was 2.53 µM.

What about the TGI (SR leukemia) of the same compound?
Its TGI is 5.65 µM.

What about the GI50 (HS 578T breast) of the same compound?
Its GI50 is 2.03 µM.

What about the TGI (HS 578T breast) of the same compound?
Its TGI is 5.17 µM.

And the GI50 (MALME-3M melanoma)?
Its GI50 is 1.75 µM.

And the TGI (MALME-3M melanoma)?
Its TGI is 3.31 µM.

And the GI50 (SK-MEL-2 melanoma)?
Its GI50 is 1.95 µM.

What about the TGI (SK-MEL-2 melanoma) of the same compound?
The TGI was 3.55 µM.

What about the GI50 (COLO 205 colon) of the same compound?
Its GI50 is 1.83 µM.

And the TGI (COLO 205 colon)?
Its TGI is 3.49 µM.

What about the GI50 (NCI-H460 lung) of the same compound?
Its GI50 is 1.96 µM.

And the TGI (NCI-H460 lung)?
Its TGI is 4.1 µM.

And the GI50 (CAKI-1 renal)?
The GI50 was 2.1 µM.

And the TGI (CAKI-1 renal)?
Its TGI is 5.63 µM.

What about the GI50 (SK-MEL-28 melanoma) of the same compound?
Its GI50 is 2.07 µM.

What about the TGI (SK-MEL-28 melanoma) of the same compound?
Its TGI is 4.17 µM.

And the GI50 (SNB-75 CNS)?
The GI50 was 1.52 µM.

And the TGI (SNB-75 CNS)?
Its TGI is 5.82 µM.

What about the GI50 (RPMI-8226 leukemia) of the same compound?
Its GI50 is 2.34 µM.

And the TGI (RPMI-8226 leukemia)?
The TGI was 6.38 µM.

What about the GI50 (OVCAR-4 ovarian) of the same compound?
The GI50 was 2.86 µM.

What about the TGI (OVCAR-4 ovarian) of the same compound?
The TGI was 12.9 µM.

And the GI50 (SK-OV-3 ovarian)?
Its GI50 is 3.01 µM.

What about the TGI (SK-OV-3 ovarian) of the same compound?
The TGI was 10.1 µM.

And the GI50 (U251 CNS)?
The GI50 was 1.54 µM.

And the TGI (U251 CNS)?
Its TGI is 2.9 µM.

What about the GI50 (NCI-H23 lung) of the same compound?
The GI50 was 2.07 µM.

What about the TGI (NCI-H23 lung) of the same compound?
Its TGI is 4.68 µM.

And the GI50 (TK-10 renal)?
The GI50 was 2.21 µM.

What about the TGI (TK-10 renal) of the same compound?
The TGI was 5.62 µM.

What about the GI50 (UACC-62 melanoma) of the same compound?
Its GI50 is 1.84 µM.

And the TGI (UACC-62 melanoma)?
The TGI was 3.79 µM.

And the GI50 (UACC-257 melanoma)?
The GI50 was 1.85 µM.

What about the TGI (UACC-257 melanoma) of the same compound?
Its TGI is 4.26 µM.

And the GI50 (MOLT-4 leukemia)?
The GI50 was 2.38 µM.

And the TGI (MOLT-4 leukemia)?
The TGI was 7.6 µM.

And the GI50 (BT-549 breast)?
The GI50 was 2.47 µM.

What about the TGI (BT-549 breast) of the same compound?
Its TGI is 5.59 µM.

What about the GI50 (M14 melanoma) of the same compound?
Its GI50 is 2.04 µM.

What about the TGI (M14 melanoma) of the same compound?
Its TGI is 4.19 µM.

And the GI50 (ACHN renal)?
The GI50 was 2.51 µM.

What about the TGI (ACHN renal) of the same compound?
The TGI was 7.78 µM.

What about the GI50 (PC-3 prostate) of the same compound?
The GI50 was 1.61 µM.

What about the TGI (PC-3 prostate) of the same compound?
Its TGI is 3.04 µM.

And the GI50 (CCRF-CEM leukemia)?
The GI50 was 3.14 µM.

What about the TGI (CCRF-CEM leukemia) of the same compound?
Its TGI is > 100 µM.

What about the GI50 (HCC-2998 colon) of the same compound?
Its GI50 is 1.82 µM.

And the TGI (HCC-2998 colon)?
The TGI was 3.3 µM.

And the GI50 (SW-620 colon)?
Its GI50 is 2 µM.

What about the TGI (SW-620 colon) of the same compound?
Its TGI is 4.62 µM.

And the GI50 (HCT-116 colon)?
Its GI50 is 1.95 µM.

What about the TGI (HCT-116 colon) of the same compound?
The TGI was 3.77 µM.

What about the GI50 (OVCAR-8 ovarian) of the same compound?
The GI50 was 1.98 µM.

What about the TGI (OVCAR-8 ovarian) of the same compound?
The TGI was 3.94 µM.

And the GI50 (HL-60(TB) leukemia)?
The GI50 was 2.38 µM.

And the TGI (HL-60(TB) leukemia)?
The TGI was 6.03 µM.

What about the GI50 (NCI/ADR-RES ovarian) of the same compound?
Its GI50 is 3.45 µM.

And the TGI (NCI/ADR-RES ovarian)?
Its TGI is 12.5 µM.

And the GI50 (NCI-H226 lung)?
Its GI50 is 3.08 µM.

What about the TGI (NCI-H226 lung) of the same compound?
Its TGI is 11.7 µM.

And the GI50 (A498 renal)?
The GI50 was 1.67 µM.

What about the TGI (A498 renal) of the same compound?
The TGI was 5.65 µM.

What about the GI50 (SF-295 CNS) of the same compound?
The GI50 was 1.67 µM.

What about the TGI (SF-295 CNS) of the same compound?
Its TGI is 3.17 µM.

What about the GI50 (RXF 393 renal) of the same compound?
Its GI50 is 1.34 µM.

What about the TGI (RXF 393 renal) of the same compound?
The TGI was 2.72 µM.

What about the GI50 (786-0 renal) of the same compound?
Its GI50 is 1.83 µM.

And the TGI (786-0 renal)?
Its TGI is 3.29 µM.

What about the GI50 (OVCAR-3 ovarian) of the same compound?
Its GI50 is 1.69 µM.

And the TGI (OVCAR-3 ovarian)?
The TGI was 3.41 µM.

And the GI50 (IGROV1 ovarian)?
Its GI50 is 1.88 µM.

What about the TGI (IGROV1 ovarian) of the same compound?
The TGI was 4.16 µM.

And the GI50 (A549 NSCLC)?
The GI50 was 1.83 µM.

And the TGI (A549 NSCLC)?
The TGI was 4.52 µM.

What about the GI50 (NCI-H522 lung) of the same compound?
The GI50 was 1.73 µM.

And the TGI (NCI-H522 lung)?
The TGI was 3.51 µM.

And the GI50 (HOP-92 NSCLC)?
The GI50 was 1.2 µM.

What about the TGI (HOP-92 NSCLC) of the same compound?
The TGI was 3.22 µM.

And the GI50 (HCT-15 colon)?
Its GI50 is 1.66 µM.

And the TGI (HCT-15 colon)?
The TGI was 3.13 µM.

And the GI50 (KM12 colon)?
Its GI50 is 1.88 µM.

What about the TGI (KM12 colon) of the same compound?
Its TGI is 3.92 µM.

What about the GI50 (HOP-62 NSCLC) of the same compound?
The GI50 was 2.01 µM.

What about the TGI (HOP-62 NSCLC) of the same compound?
The TGI was 3.83 µM.

And the GI50 (MCF7 breast)?
Its GI50 is 2.16 µM.

And the TGI (MCF7 breast)?
Its TGI is 5.35 µM.

And the GI50 (SF-268 CNS)?
The GI50 was 2 µM.

What about the TGI (SF-268 CNS) of the same compound?
The TGI was 5.4 µM.

And the GI50 (MDA-MB-231 breast)?
Its GI50 is 1.68 µM.

What about the TGI (MDA-MB-231 breast) of the same compound?
Its TGI is 3.09 µM.

And the GI50 (DU-145 prostate)?
Its GI50 is 2.6 µM.

What about the TGI (DU-145 prostate) of the same compound?
Its TGI is 6.79 µM.

And the GI50 (SNB-19 CNS)?
The GI50 was 2.14 µM.

What about the TGI (SNB-19 CNS) of the same compound?
The TGI was 5.72 µM.

And the GI50 (K-562 leukemia)?
Its GI50 is 2.4 µM.

And the TGI (K-562 leukemia)?
The TGI was 5.52 µM.

And the GI50 (T-47D breast)?
The GI50 was 3.27 µM.

And the TGI (T-47D breast)?
Its TGI is 16.4 µM.

And the GI50 (OVCAR-5 ovarian)?
The GI50 was 1.78 µM.

And the TGI (OVCAR-5 ovarian)?
The TGI was 3.54 µM.

What about the GI50 (SF-539 CNS) of the same compound?
The GI50 was 1.92 µM.

What about the TGI (SF-539 CNS) of the same compound?
The TGI was 3.61 µM.

And the GI50 (SK-MEL-5 melanoma)?
The GI50 was 1.7 µM.

What about the TGI (SK-MEL-5 melanoma) of the same compound?
The TGI was 3.23 µM.

And the GI50 (LOX IMVI melanoma)?
The GI50 was 1.65 µM.

What about the TGI (LOX IMVI melanoma) of the same compound?
Its TGI is 3.05 µM.

What about the GI50 (SN12C renal) of the same compound?
Its GI50 is 1.69 µM.

What about the TGI (SN12C renal) of the same compound?
The TGI was 3.19 µM.

What about the GI50 (UO-31 renal) of the same compound?
Its GI50 is 2.16 µM.

What about the TGI (UO-31 renal) of the same compound?
Its TGI is 6.31 µM.
